Experimental findings from ChEMBL document CHEMBL1177668, “(-)-N-Formylanonaine from Michelia alba as a human tyrosinase inhibitor and antioxidant” (Bioorg Med Chem, 2010) are described below.

Data set [1] deals with T1, Tyrosinase (Agaricus bisporus, UniProt O42713).
T1 sequence (O42713 whole entry): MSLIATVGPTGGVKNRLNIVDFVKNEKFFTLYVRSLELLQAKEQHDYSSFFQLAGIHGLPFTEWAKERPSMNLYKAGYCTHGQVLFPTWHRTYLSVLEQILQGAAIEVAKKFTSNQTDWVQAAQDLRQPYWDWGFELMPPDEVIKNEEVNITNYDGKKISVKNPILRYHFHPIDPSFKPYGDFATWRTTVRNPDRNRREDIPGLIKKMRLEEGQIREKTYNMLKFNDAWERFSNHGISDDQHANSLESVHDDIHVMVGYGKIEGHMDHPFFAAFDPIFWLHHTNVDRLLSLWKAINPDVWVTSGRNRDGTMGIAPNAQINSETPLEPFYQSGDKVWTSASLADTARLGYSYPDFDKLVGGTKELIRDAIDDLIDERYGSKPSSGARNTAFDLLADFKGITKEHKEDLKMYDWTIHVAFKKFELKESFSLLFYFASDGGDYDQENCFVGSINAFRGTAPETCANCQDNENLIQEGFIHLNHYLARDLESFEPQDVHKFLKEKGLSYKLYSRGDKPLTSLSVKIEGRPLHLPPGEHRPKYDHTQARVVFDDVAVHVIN
Description: Inhibition of mushroom tyrosinase after 30 mins by spectrophotometric analysis

For data set [2], the species on record is Homo sapiens. The data set is described as follows: Induction of dendritic to bipolar morphology changes in human HEMn-MP at 200 uM after 12 to 60 hrs by phase contrast microscopic analysis. The data set is classed as functional.
The nature of data set [3]: Cytotoxicity against human HEMn-MP assessed as cell death at 100 uM after 48 hrs by MTT assay.
For data set [4], the species on record is Homo sapiens. Kind of data set: Induction of dendritic to bipolar morphology changes in human HEMn-MP at 10 uM after 12 to 60 hrs by phase contrast microscopic analysis. The data set is classed as functional.
A short description of data set [5]: Cytotoxicity against human keratinocytes after 48 hrs by MTT assay. The data set is classed as cell-based, Keratinocyte. Background: Tetrazolium assays rely on reduction of a dye to a coloured formazan, in cell work by metabolically active cells.
Data set [6] is described as follows: Antioxidant activity assessed as potassium ferric cyanide ion reducing power at 100 uM after 20 mins. The data set is classed as functional.
Data set [7] relates to Fibroblast. Kind of data set: Cytotoxicity against human fibroblasts assessed as cell viability at 10 uM after 48 hrs by MTT assay. The data set is classed as cell-based.
The species entered for data set [8] is Homo sapiens. Kind of data set: Reduction of melanin production in human HEMn-MP at 200 uM after 12 to 60 hrs by phase contrast microscopic analysis. The data set is classed as functional.
A short description of data set [9]: Cytotoxicity against human HEMn-MP assessed as cell viability at 200 uM after 48 hrs by MTT assay.
For data set [10], the species on record is Homo sapiens. Kind of data set: Reduction of melanin production in human HEMn-MP at 10 uM after 12 to 60 hrs by phase contrast microscopic analysis. The data set is classed as functional.
The nature of data set [11]: Cytotoxicity against human HEMn-MP assessed as cell viability at 0.01 to 10 uM after 48 hrs by MTT assay. To be noted: HEMn-MP cells, read-out: Activity.
The target in data set [12] is T2, Tyrosinase (Homo sapiens) (UniProt P14679).
T2 sequence (whole entry): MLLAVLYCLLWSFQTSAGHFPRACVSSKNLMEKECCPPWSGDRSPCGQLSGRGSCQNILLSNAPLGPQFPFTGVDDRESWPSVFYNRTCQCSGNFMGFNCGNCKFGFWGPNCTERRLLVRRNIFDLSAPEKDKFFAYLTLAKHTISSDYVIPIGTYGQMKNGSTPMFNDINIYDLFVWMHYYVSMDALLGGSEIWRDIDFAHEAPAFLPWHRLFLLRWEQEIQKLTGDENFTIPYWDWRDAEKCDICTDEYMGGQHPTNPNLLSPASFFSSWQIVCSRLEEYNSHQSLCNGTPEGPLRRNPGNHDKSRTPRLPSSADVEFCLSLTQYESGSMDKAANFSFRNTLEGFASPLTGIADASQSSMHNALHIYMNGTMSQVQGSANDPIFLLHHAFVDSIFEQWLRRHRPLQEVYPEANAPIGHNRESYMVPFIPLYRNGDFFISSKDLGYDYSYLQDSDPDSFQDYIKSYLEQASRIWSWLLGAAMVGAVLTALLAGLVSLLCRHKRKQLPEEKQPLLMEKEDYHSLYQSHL
Kind of data set: Inhibition of tyrosinase in human HEMn-MP assessed as oxidation of L-DOPA to dopaquinone at 100 uM after 2 days by spectrophotometric analysis.

Data set [13] in a line: Cytotoxicity against human keratinocytes assessed as cell viability at 10 uM after 48 hrs by MTT assay. The data set is classed as cell-based. As to conditions: keratinocyte.
Data set [14] can be described thus: Cytotoxicity against human HEMn-MP assessed as cell death at 10 to 200 uM after 2 to 60 hrs by phase contrast microscopic analysis.
For data set [15], the species on record is Homo sapiens. Kind of data set: Induction of dendritic to bipolar morphology changes in human HEMn-MP at 100 uM after 48 hrs by phase contrast microscopic analysis. The data set is classed as functional.
Data set [16] can be described thus: Cytotoxicity against human fibroblasts after 48 hrs by MTT assay. The data set is classed as cell-based, Fibroblast.
Data set [17] in a line: Cytotoxicity against human fibroblasts assessed as cell viability at 100 uM after 48 hrs by MTT assay. The data set is classed as cell-based, Fibroblast. As to conditions: read-out: Activity.
The nature of data set [18]: Cytotoxicity against human HEMn-MP after 48 hrs by MTT assay. As to conditions: HEMn-MP cells.
The test system of data set [19] is Radical scavenging activity.
Description: Antioxidant activity assessed as DPPH free radical scavenging activity after 30 mins
Data set [20] deals with T3, Tyrosinase (Homo sapiens, UniProt P14679).
T3 sequence (P14679 whole entry): T2 sequence (whole entry)
Kind of data set: Inhibition of tyrosinase in human HEMn-MP assessed as reduction of melanin level after 2 days by spectrophotometric analysis.

Data set [21] concerns Fibroblast. Kind of data set: Cytotoxicity against human fibroblasts assessed as cell viability at 200 uM after 48 hrs by MTT assay. The data set is classed as cell-based.

Activity calls are given as the source filed them. The calls are words filed in the database; no cut-off is given here.

Take `O=CN1CCc2cc3c(c4c2[C@H]1Cc1ccccc1-4)OCO3`: the IC50 at Tyrosinase [1] stood at 74.3 µM; in [19], 121 µM. Also, the result (in the data set filed under Homo sapiens [2]; in the data set filed under Homo sapiens [4]; in the data set filed under Homo sapiens [8]; in the data set filed under Homo sapiens [10]; in data set [12]; in the data set listed under Homo sapiens [15]) was Active. The Activity result is given as “Toxic” in data set [3]; “Non-toxic” in the data set with Fibroblast [7]; “Toxic” in [9]; “Non-toxic” in data set [13]; “Non-toxic” in data set [14]; “Non-toxic” in the data set on Fibroblast [21]. Besides, the half-maximal cytotoxic concentration (CC50) at 48 h in data set [5] was found to be 355 µM; in data set [16], 325 µM; in data set [18] it was 735 µM. Besides, the OD in data set [6] worked out at 0.56. Moreover, the viability at 48 h, 10 µM in data set [11] amounted to 90%. Besides, the viability at 48 h, 100 µM in data set [17] amounted to 70%. Besides, at Tyrosinase [20], the EC50 was 90 µM.

`O=C1O[C@H]([C@@H](O)CO)C(O)=C1O` [ASCORBIC ACID] displayed an IC50 in data set [19] of 52.1 µM.

As for `COc1ccc(O)c(C(C)(C)C)c1.COc1ccc(O)cc1C(C)(C)C`, the OD in data set [6] worked out at 1.28.

As a reminder, the IC50 is the concentration needed to halve the response being measured. Lower therefore signals greater potency. The term CC50 denotes the concentration giving 50% cytotoxicity. Read a high CC50 as better tolerance by the cells. The term EC50 denotes the midpoint of the concentration-response curve.
